From ChEMBL document CHEMBL1128072, “The synthesis and biological evaluation of hypericin analogs” (Bioorg Med Chem Lett, 1995)
Calls of active or inactive are those of the source. No cut-off for these calls is given here.

What was measured:
[1] = tested on: Equine infectious anemia virus; assay: In vitro anti-retroviral activity against equine infectious anemia virus(EIAV); Inactive; type: functional, organism-based
[2] = tested on: Equine infectious anemia virus; assay: In vitro anti-retroviral activity against equine infectious anemia virus(EIAV); compound was active; type: functional, organism-based

| Compound | Activity [1] | Activity [2] |
| --- | --- | --- |
| O=c1c2c(O)cc(O)c3c4c(O)cc(O)c5c(=O)c6c(O)cc(O)c7c8c(O)cc(O)c1c8c(c23)c(c54)c67 | inactive | – |
| Cc1cc(O)c2c(=O)c3c(O)cc(O)c4c5c(O)cc(O)c6c(=O)c7c(O)cc(C)c8c1c2c(c34)c(c78)c65 | – | Active |
| COc1cc(O)c2c(=O)c3c(O)cc(O)c4c5c(O)cc(O)c6c(=O)c7c(O)cc(OC)c8c1c2c(c34)c(c65)c78 | – | Active |
| Cc1c(O)c2c(=O)c3c(O)c(C)c(O)c4c5c(O)c(C)c(O)c6c(=O)c7c(O)c(C)c(O)c8c(c1O)c2c(c34)c(c78)c65 | inactive | – |
